From US9174974B2, “Macrocyclic factor VIIa inhibitors” (BRISTOL-MYERS SQUIBB COMPANY, priority 2012, dated 2015) come the findings set out here.

One test has as its target human FVIIa (Homo sapiens (Human), UniProt P08709). Kind of test: FVIIa Ki (37° C.), FVIIa-Xase assay. Type of test: biochemical. Conditions: for Ki(HK1)/Ki(FVIIa): selectivity ratio, tissue kallikrein (HK1) vs FVIIa.
The target of another test is tissue kallikrein (HK1) (Homo sapiens (Human), UniProt P06870). In words: Tissue kallikrein-1 (HK1) Ki, fluorogenic substrate assay. Format: biochemical. Conditions: 37° C.

SMILES strings stand for the structures. Like-named read-outs stand apart in the source and are kept apart here.

Chain of tissue kallikrein (HK1) (P06870 25-262): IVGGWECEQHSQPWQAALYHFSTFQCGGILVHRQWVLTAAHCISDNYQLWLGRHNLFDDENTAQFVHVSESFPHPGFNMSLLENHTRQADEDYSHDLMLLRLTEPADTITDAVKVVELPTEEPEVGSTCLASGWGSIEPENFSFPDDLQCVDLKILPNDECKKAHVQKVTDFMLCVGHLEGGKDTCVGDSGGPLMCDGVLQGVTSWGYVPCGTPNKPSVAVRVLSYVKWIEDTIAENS
Chain of human FVIIa (P08709 61-212): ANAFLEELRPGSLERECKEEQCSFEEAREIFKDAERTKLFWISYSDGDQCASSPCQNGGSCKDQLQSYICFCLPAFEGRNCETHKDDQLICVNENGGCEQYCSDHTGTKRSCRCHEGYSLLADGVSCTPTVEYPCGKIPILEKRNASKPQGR
Chain of human FVIIa (P08709 213-466): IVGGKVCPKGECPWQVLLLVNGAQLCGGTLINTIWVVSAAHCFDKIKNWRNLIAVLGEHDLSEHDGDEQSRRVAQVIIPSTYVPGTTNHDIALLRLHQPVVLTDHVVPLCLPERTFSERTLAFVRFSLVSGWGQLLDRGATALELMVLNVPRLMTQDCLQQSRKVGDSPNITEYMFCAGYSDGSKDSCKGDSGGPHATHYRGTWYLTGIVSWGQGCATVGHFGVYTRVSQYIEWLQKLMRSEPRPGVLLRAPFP
Chain of human FVIIa (P13726 33-295 partner): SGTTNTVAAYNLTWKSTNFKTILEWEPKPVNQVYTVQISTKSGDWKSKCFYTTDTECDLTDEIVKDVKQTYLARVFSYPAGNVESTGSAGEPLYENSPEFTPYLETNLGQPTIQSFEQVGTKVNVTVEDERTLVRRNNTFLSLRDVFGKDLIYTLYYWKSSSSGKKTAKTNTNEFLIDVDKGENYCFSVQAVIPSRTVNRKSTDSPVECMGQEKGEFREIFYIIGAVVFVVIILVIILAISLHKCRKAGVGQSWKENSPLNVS

Broadly, the Ki is a measure of affinity in units of concentration, obtained from inhibition or displacement. Consider `Cc1cc2ccc1[C@@H](C)COC(=O)Nc1ccc([C@@H](CC(F)F)C(=O)O)c(c1)CN(C)C(=O)[C@@H]2Nc1ccc2c(N)ncc(F)c2c1.O=C(O)C(F)(F)F` [Example 10, (2R)-2-[(2R,15R)-2-[(1-Amino-4-fluoroisoquinolin-6-yl)amino]-4,15,17-trimethyl-3,12-dioxo-13-oxa-4,11-diazatricyclo[14.2.2.1^6,10]henicosa-1(18),6,8,10 (21),16,19-hexaen-7-yl]-4,4-difluorobutanoic acid; trifluoroacetic acid], for which the Ki is 0.9 nM on human FVIIa (read-out: FVIIa Ki, nM 37° C.) and 320 nM on tissue kallikrein (HK1). Moreover, the “Ki(HK1)/Ki(FVIIa)” value at human FVIIa is on record as 356.

Turning to `Cc1cc2ccc1[C@@H](C)COC(=O)Nc1cc(F)c(S(=O)(=O)C3CC3)c(c1)CN(C)C(=O)[C@@H]2Nc1cc(F)c2c(N)nccc2c1.O=C(O)C(F)(F)F` [Example 11, (2R,15R)-2-[(1-Amino-8-fluoroisoquinolin-6-yl)amino]-7-(cyclopropanesulfonyl)-8-fluoro-4,15,17-trimethyl-13-oxa-4,11-diazatricyclo[14.2.2.1^6,10]henicosa-1(18),6,8,10 (21),16,19-hexaene-3,12-dione; trifluoroacetic acid], the Ki on human FVIIa (read-out: FVIIa Ki, nM 37° C.) came out at 0.66 nM; at tissue kallikrein (HK1), 96 nM. The “Ki(HK1)/Ki(FVIIa)” value at human FVIIa came out at 145.

With `CC[C@@H](C(=O)O)c1ccc2cc1CN(C)C(=O)[C@H](Nc1ccc3c(N)ncc(F)c3c1)c1ccc(c(C)c1)[C@@H](C)COC(=O)N2.O=C(O)C(F)(F)F` [Example 13, (2R)-2-[(2R,15R)-2-[(1-Amino-4-fluoroisoquinolin-6-yl)amino]-4,15,17-trimethyl-3,12-dioxo-13-oxa-4,11-diazatricyclo[14.2.2.1^6,10]henicosa-1(18),6,8,10 (21),16,19-hexaen-7-yl]butanoic acid; trifluoroacetic acid], the Ki amounted to 0.61 nM on human FVIIa (read-out: FVIIa Ki, nM 37° C.) and 380 nM at tissue kallikrein (HK1). For the same molecule, the “Ki(HK1)/Ki(FVIIa)” value on human FVIIa stood at 623.

As for `Cc1cc2ccc1[C@@H](C(F)F)COC(=O)Nc1ccc(S(=O)(=O)C3CC3)c(c1)CN(C)C(=O)[C@@H]2Nc1ccc2c(N)nccc2c1.O=C(O)C(F)(F)F` [Example 16, (2R,15R)-2-[(1-Aminoisoquinolin-6-yl)amino]-7-(cyclopropanesulfonyl)-15-(difluoromethyl)-4,17-dimethyl-13-oxa-4,11-diazatricyclo[14.2.2.1^6,10]henicosa-1(18),6,8,10 (21),16,19-hexaene-3,12-dione; trifluoroacetic acid], the Ki amounted to 0.5 nM on human FVIIa (read-out: FVIIa Ki, nM 37° C.) and 180 nM at tissue kallikrein (HK1). The “Ki(HK1)/Ki(FVIIa)” value on human FVIIa came out at 360.

For `Cc1cc2ccc1[C@@H](C)COC(=O)Nc1cc(F)c(OC[C@H](C)O)c(c1)CN(C)C(=O)[C@@H]2Nc1ccc2c(N)nccc2c1.O=C(O)C(F)(F)F` [Example 17, (2R,15R)-2-[(1-Aminoisoquinolin-6-yl)amino]-8-fluoro-7-[(2S)-2-hydroxypropoxy]-4,15,20-trimethyl-13-oxa-4,11-diazatricyclo[14.2.2.1^6,10]henicosa-1(18),6,8,10 (21),16,19-hexaene-3,12-dione; trifluoroacetic acid], the Ki at human FVIIa (read-out: FVIIa Ki, nM 37° C.) was found to be 0.46 nM; at tissue kallikrein (HK1), 400 nM. For the same molecule, on human FVIIa, the “Ki(HK1)/Ki(FVIIa)” value is listed as 870.

Turning to `Cc1cc2ccc1[C@@H](C)COC(=O)Nc1cc(F)c(OCC3(C#N)CC3)c(c1)CN(C)C(=O)[C@@H]2Nc1ccc2c(N)nccc2c1.O=C(O)C(F)(F)F` [Example 18, 1-({[(2R,15R)-2-[(1-Aminoisoquinolin-6-yl)amino]-8-fluoro-4,15,20-trimethyl-3,12-dioxo-13-oxa-4,11-diazatricyclo[14.2.2.1^6,10]henicosa-1(18),6,8,10 (21),16,19-hexaen-7-yl]oxy}methyl)cyclopropane-1-carbonitrile; trifluoroacetic acid], at human FVIIa, the Ki is 0.44 nM and the “Ki(HK1)/Ki(FVIIa)” value is listed as 1114. The molecule also displayed a Ki on tissue kallikrein (HK1) of 490 nM.

As for `Cc1cc2ccc1[C@@H](C)COC(=O)Nc1cc(F)c(S(=O)(=O)C(C)C)c(c1)CN(C)C(=O)[C@@H]2Nc1cc(F)c2c(N)nccc2c1.O=C(O)C(F)(F)F` [Example 20, (2R,15R)-2-[(1-Amino-8-fluoroisoquinolin-6-yl)amino]-8-fluoro-4,15,17-trimethyl-7-(propane-2-sulfonyl)-13-oxa-4,11-diazatricyclo[14.2.2.1^6,10]henicosa-1(18),6,8,10 (21),16,19-hexaene-3,12-dione; trifluoroacetic acid], the Ki at human FVIIa (read-out: FVIIa Ki, nM 37° C.) was determined as 0.36 nM; at tissue kallikrein (HK1), 120 nM. Moreover, at human FVIIa, the “Ki(HK1)/Ki(FVIIa)” value came to 333.

With `CCN(Cc1nccs1)C(=O)c1ccc2cc1CN(C)C(=O)[C@H](Nc1ccc3c(N)nccc3c1)c1ccc(c(C)c1)[C@@H](C)COC(=O)N2.O=C(O)C(F)(F)F` [Example 23, (2R,15R)-2-[(1-Aminoisoquinolin-6-yl)amino]-N-ethyl-4,15,17-trimethyl-3,12-dioxo-N-(1,3-thiazol-2-ylmethyl)-13-oxa-4,11-diazatricyclo[14.2.2.1^6,10]henicosa-1(18),6,8,10 (21),16,19-hexaene-7-carboxamide; trifluoroacetic acid], the Ki turned out to be 0.3 nM on human FVIIa (read-out: FVIIa Ki, nM 37° C.) and 330 nM at tissue kallikrein (HK1). Further, the “Ki(HK1)/Ki(FVIIa)” value on human FVIIa is given as 1100.

In the case of `COc1cc2c(F)cc1[C@@H](C)COC(=O)Nc1ccc(S(=O)(=O)C3CC3)c(c1)CN(C)C(=O)[C@@H]2Nc1cc2ccnc(N)c2cc1F.O=C(O)C(F)(F)F` [Example 25, (2R,15R)-2-[(1-Amino-7-fluoroisoquinolin-6-yl)amino]-7-(cyclopropanesulfonyl)-18-fluoro-20-methoxy-4,15-dimethyl-13-oxa-4,11-diazatricyclo[14.2.2.1^6,10]henicosa-1(18),6,8,10 (21),16,19-hexaene-3,12-dione; trifluoroacetic acid], the Ki stood at 0.25 nM at human FVIIa (read-out: FVIIa Ki, nM 37° C.) and 270 nM at tissue kallikrein (HK1). Moreover, the “Ki(HK1)/Ki(FVIIa)” value at human FVIIa was 1080.

`Cc1cc2ccc1[C@@H](C)COC(=O)Nc1cc(F)c(O[C@@H]3COC[C@@H]3O)c(c1)CN(C)C(=O)[C@@H]2Nc1ccc2c(N)nccc2c1.O=C(O)C(F)(F)F` [Example 27, (2R,15R)-2-[(1-Aminoisoquinolin-6-yl)amino]-8-fluoro-7-{[(3R,4S)-4-hydroxyoxolan-3-yl]oxy}-4,15,17-trimethyl-13-oxa-4,11-diazatricyclo[14.2.2.1^6,10]henicosa-1(18),6,8,10 (21),16,19-hexaene-3,12-dione; trifluoroacetic acid]: the inhibition constant Ki at human FVIIa (read-out: FVIIa Ki, nM 37° C.) stood at 0.23 nM; at tissue kallikrein (HK1), 320 nM. Also, the “Ki(HK1)/Ki(FVIIa)” value on human FVIIa is recorded as 1391.

For `COCCCOc1c(F)cc2cc1CN(C)C(=O)[C@H](Nc1ccc3c(N)nccc3c1)c1ccc(c(C)c1)[C@@H](C)COC(=O)N2.O=C(O)C(F)(F)F` [Example 28, (2R,15R)-2-[(1-Aminoisoquinolin-6-yl)amino]-8-fluoro-7-(3-methoxypropoxy)-4,15,20-trimethyl-13-oxa-4,11-diazatricyclo[14.2.2.1^6,10]henicosa-1(18),6,8,10 (21),16,19-hexaene-3,12-dione; trifluoroacetic acid], the Ki was found to be 0.2 nM on human FVIIa (read-out: FVIIa Ki, nM 37° C.) and 290 nM on tissue kallikrein (HK1). For the same molecule, the “Ki(HK1)/Ki(FVIIa)” value on human FVIIa was 1450.

With `Cc1cc2ccc1[C@@H](C)COC(=O)Nc1cc(F)c(S(=O)(=O)C3CC3)c(c1)CN(C)C(=O)[C@@H]2Nc1cc2ccnc(N)c2cc1F.O=C(O)C(F)(F)F` [Example 29, (2R,15R)-2-[(1-Amino-7-fluoroisoquinolin-6-yl)amino]-7-(cyclopropanesulfonyl)-8-fluoro-4,15,17-trimethyl-13-oxa-4,11-diazatricyclo[14.2.2.1^6,10]henicosa-1(18),6,8,10 (21),16,19-hexaene-3,12-dione; trifluoroacetic acid], the Ki worked out at 0.17 nM on human FVIIa (read-out: FVIIa Ki, nM 37° C.) and 750 nM on tissue kallikrein (HK1). Further, at human FVIIa, the “Ki(HK1)/Ki(FVIIa)” value is given as 4412.

On to `Cc1cc2ccc1[C@@H](C)COC(=O)Nc1cc(F)c(O[C@H](C)CO)c(c1)CN(C)C(=O)[C@@H]2Nc1ccc2c(N)nccc2c1.O=C(O)C(F)(F)F` [Example 30, (2R,15R)-2-[(1-Aminoisoquinolin-6-yl)amino]-8-fluoro-7-{[(2R)-1-hydroxypropan-2-yl]oxy}-4,15,20-trimethyl-13-oxa-4,11-diazatricyclo[14.2.2.16,10]henicosa-1(18),6,8,10 (21),16,19-hexaene-3,12-dione; trifluoroacetic acid], for which the Ki at human FVIIa (read-out: FVIIa Ki, nM 37° C.) is 0.17 nM; on tissue kallikrein (HK1), 70 nM. The “Ki(HK1)/Ki(FVIIa)” value on human FVIIa stood at 412.

As to `Cc1cc2ccc1[C@@H](C)COC(=O)Nc1cc(F)c(OC(CF)CF)c(c1)CN(C)C(=O)[C@@H]2Nc1ccc2c(N)nccc2c1.O=C(O)C(F)(F)F` [Example 32, (2R,15R)-2-[(1-Aminoisoquinolin-6-yl)amino]-7-[(1,3-difluoropropan-2-yl)oxy]-8-fluoro-4,15,20-trimethyl-13-oxa-4,11-diazatricyclo[14.2.2.1^6,10]henicosa-1(18),6,8,10 (21),16,19-hexaene-3,12-dione; trifluoroacetic acid], the Ki on human FVIIa (read-out: FVIIa Ki, nM 37° C.) was 0.15 nM; at tissue kallikrein (HK1), 41 nM. In addition, the “Ki(HK1)/Ki(FVIIa)” value on human FVIIa worked out at 273.

Regarding `Cc1cc2ccc1[C@@H](C)COC(=O)Nc1cc(F)c(O[C@@H](C)CO)c(c1)CN(C)C(=O)[C@@H]2Nc1ccc2c(N)nccc2c1.O=C(O)C(F)(F)F` [Example 33, (2R,15R)-2-[(1-Aminoisoquinolin-6-yl)amino]-8-fluoro-7-{[(2S)-1-hydroxypropan-2-yl]oxy}-4,15,20-trimethyl-13-oxa-4,11-diazatricyclo[14.2.2.16,10]henicosa-1(18),6,8,10 (21),16,19-hexaene-3,12-dione; trifluoroacetic acid], the Ki on human FVIIa (read-out: FVIIa Ki, nM 37° C.) was determined as 0.14 nM; on tissue kallikrein (HK1) it was 50 nM. Besides, at human FVIIa, the “Ki(HK1)/Ki(FVIIa)” value is reported as 357.

On to `Cc1cc2ccc1[C@@H](C)COC(=O)Nc1cc(F)c(S(=O)(=O)C(C)C)c(c1)CN(C)C(=O)[C@@H]2Nc1cc2ccnc(N)c2cc1F.O=C(O)C(F)(F)F` [Example 34, (2R,15R)-2-[(1-Amino-7-fluoroisoquinolin-6-yl)amino]-8-fluoro-4,15,17-trimethyl-7-(propane-2-sulfonyl)-13-oxa-4,11-diazatricyclo[14.2.2.1^6,10]henicosa-1(18),6,8,10 (21),16,19-hexaene-3,12-dione; trifluoroacetic acid], for which the Ki at human FVIIa (read-out: FVIIa Ki, nM 37° C.) amounted to 0.14 nM; at tissue kallikrein (HK1) it was 2100 nM. Further, at human FVIIa, the “Ki(HK1)/Ki(FVIIa)” value is reported as 15000.
